{"source": "paper PMC10031466", "about": "“The ROK kinase N-acetylglucosamine kinase uses a sequential random enzyme mechanism with successive conformational changes upon each substrate binding” (The Journal of Biological Chemistry, 2023)", "key": {"[1]": {"target": "T1, N-acetylglucosamine kinase (PsNagK) (Plesiomonas shigelloides, UniProt R8APY9)", "T1 construct": "gene nagK; His-SUMO tagged P. shigelloides NagK (crystallization)", "T1 sequence (R8APY9 1-303)": "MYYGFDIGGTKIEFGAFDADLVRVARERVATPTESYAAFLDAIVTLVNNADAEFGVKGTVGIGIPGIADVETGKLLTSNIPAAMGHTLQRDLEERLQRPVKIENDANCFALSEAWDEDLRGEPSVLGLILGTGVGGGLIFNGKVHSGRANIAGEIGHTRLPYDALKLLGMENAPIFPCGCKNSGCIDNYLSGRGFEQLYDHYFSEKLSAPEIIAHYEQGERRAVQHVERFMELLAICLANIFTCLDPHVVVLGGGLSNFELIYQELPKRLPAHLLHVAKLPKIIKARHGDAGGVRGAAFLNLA", "assay": "crystal structures (binary 7PA1; ternary with GlcNAc 7P9P); isothermal differential scanning fluorimetry", "assay_type": "binding"}, "[2]": {"target": "T1, N-acetylglucosamine kinase (PsNagK)", "assay": "crystal structure; isothermal differential scanning fluorimetry", "assay_type": "binding"}}, "data": [{"smiles": "Nc1ncnc2c1ncn2[C@@H]1O[C@H](COP(=O)(O)OP(=O)(O)NP(=O)(O)O)[C@@H](O)[C@H]1O", "note": "[AMP-PNP]", "values": [{"measurement": "Kd", "setting": "[1]", "result": "2.2 ± 0.6", "unit": "mM"}]}, {"smiles": "CC(=O)N[C@@H]1[C@@H](O)[C@H](O)[C@@H](CO)O[C@@H]1O", "note": "[GlcNAc, N-acetyl-D-glucosamine]", "values": [{"measurement": "Kd", "setting": "[2]", "result": "0.23 ± 0.02", "unit": "mM"}]}]}
